Test results as given in patent US8507562B2, “Synthesis of (1)-beta-elemene, (-)-beta-elemenal, (-)-beta-elemenol, (-)-beta-elemene fluoride and their analogues, intermediates, and composition and uses thereof” (HYWE Pharmaceuticals, Inc., priority 2004, dated 2013).

Test system: human glioma cells
Assay: MTT assay, elemene analogs
Type: cell-based
Settings: for IC50: Homo sapiens, Glioma cell
Protocol: The MTT assay is a commonly used method in evaluation of cell survival, based on the ability of viable cells to convert MTT, a soluble tetrazolium salt [3-(4,5-dimethylthuazole-2-yl)-2,5 diphenyl tetrazolium bromide], into an insoluble formazan precipitate, which is quantitated by spectrophotometry following solubilization in dimethyl sulfoxide (DMSO).
The cells were then solubilized in 125 μl of DMSO and absorbance readings were taken using a 96-well Opsys MRI Microplate Reader (ThermoLabsystems; Chantilly, Va.). The amount of MTT dye reduction was calculated based on the difference between absorbance at 570 nm and at 630 nm. Cell viability in treated cells was expressed as the amount of dye reduction relative to that of untreated control cells. The wells which contained only medium and 10 μl of MTT were used as blanks for the plate reader. Three sets of experiments were performed in 8-12 wells for each treatment.

| Compound | IC50 (24 hr) [µg/mL] | IC50 (48 hr) [µg/mL] | IC50 (72 hr) [µg/mL] | IC50 in human glioma cells (24 hr) [µg/mL] | IC50 in human glioma cells (48 hr) [µg/mL] | IC50 in human glioma cells (72 hr) [µg/mL] |
| --- | --- | --- | --- | --- | --- | --- |
| C=C(C)C1=C(C)C(=O)C[C@@H](C(=C)C)C1 [Lr-6, (S)-3,5-Diisopropenyl-2-methyl-cyclohex-2-enone] | > 200 | > 200 | > 200 |  |  |  |
| C=C(C)[C@H]1CC=C(C)C(=O)C1 [Lr-9, (S)-5-Isopropenyl-2-methyl-cyclohex-2-enone] | > 200 | > 200 | > 200 |  |  |  |
| C=C(C)[C@@H]1CC=C(C)C(=O)C1 [Lr-10, (R)-5-Isopropenyl-2-methyl-cyclohex-2-enone] | > 200 | > 200 | > 200 |  |  |  |
| (1R,5S)-1-Isobutyl-3,5-diisopropenyl-2-methyl-cyclohex-2-enol, and (1S,5S)-1-Isobutyl-3,5-diisopropenyl-2-methyl-cyclohex-2-enol [Lr-8] |  |  |  | 106.2 | 105.2 | 103.3 |
| (1S,5S)-3,5-Diisopropenyl-2-methyl-cyclohex-2-enol, and (1R,5S)-3,5-Diisopropenyl-2-methyl-cyclohex-2-enol [Lr-7] |  |  |  | >200 | >200 | >200 |
| (S)-1,5-Diisopropenyl-2-methyl-cyclohex-2-enol, and (R)-1,5-Diisopropenyl-2-methyl-cyclohex-2-enol [Lr-4] |  |  |  | >200 | >200 | >200 |
| (S)-5-Isopropenyl-1,2-dimethyl-cyclohex-2-enol, and (R)-5-Isopropenyl-1,2-dimethyl-cyclohex-2-enol [Lr-5] |  |  |  | >200 | >200 | >200 |
